In patent publication US20100179185A1, “Novel Aminothienopyridinone Derivatives Processes for Preparing Them and Pharmaceutical Compositions Thereof” (UCB PHARMA, S.A., priority 2006, published 2010):
pIC50: −log10 of the molar value.

Assays:
[1] = system: LPS stimulated release of TNF from Human whole blood; assay: LPS stimulation of whole blood, TNF-α release (ELISA); assay type: cell-based; conditions: LPS 1 μg/ml, 18 hours, 37° C., n=12
Experimental: Inhibitor stocks (10 mM) are kept as a frozen solution (−20° C.) in DMSO. Serial dilutions of inhibitors are prepared in DMSO as 200-times concentrated stocks. Inhibitors are diluted 1 in 200 into tissue culture media, prewarmed to 37° C. and transferred to plates containing PBMC. PBMC and inhibitors are incubated together for 30 mins prior to addition of LPS. Inhibitors used in whole blood assays are prepared according to a different regime. Using the same stock solution, serial dilutions of inhibitors are prepared in DMSO. Inhibitors (14) are then diluted 1 in 500 straight into whole blood. Inhibitor is incubated with whole blood for 30 mins prior to the addition of LPS.
Whole blood is taken by venous puncture using heparinised vacutainers (Becton Dickinson), and 500 μl of blood aliquoted into each well of a 96 deep well plate. After the addition of inhibitor, blood is stimulated with an optimal dose of LPS (E coli strain B5:055, Sigma, at a final concentration of 1 μg ml^−1) and incubated at 37° C. without CO2 for 18 hours. TNF-α levels are measured from cell free supernatants by sandwich ELISA (R&D Systems, # DY210).

[2] = system: LPS stimulated TNF release in rat; assay: Rat LPS induced TNF release; assay type: in vivo; conditions: 1.5 h, male Lewis rats, LPS 1 mg/kg i.v., plasma TNFα at 90 minutes, compound dosed p.o.
Experimental: Male Lewis rats (180-200 g) are anaesthetized with Isofluor and injected i.v. with LPS (1 mg/kg) in a volume of 0.5 ml sterile saline. After 90 minutes blood is collected into heparin tubes for preparation of plasma samples. Plasma is stored at −80° C. prior to assay for TNFα by commercial ELISA.

Cc1cccc(Nc2c(C(=O)N3CCC[C@@H]3CO)sc3c2ccc(=O)n3-c2c(F)cccc2F)n1 [Compound 1]
pIC50 [1]: 6.70 to 7.52
ED50 [2]: < 10 mg/kg
